Laboratory results taken from patent US12492186B2, “Bicyclic heterocyclic compounds useful as IRAK4 inhibitors” (BRISTOL-MYERS SQUIBB COMPANY, priority 2019, dated 2025).

Molecular target: IRAK4 (Homo sapiens (Human), UniProt Q9NWZ3)
Experiment: IRAK4 Inhibition Assay
Assay type: biochemical
Settings: ATP 500 μM; IRAK4 0.6 nM; 60 min room temperature; Caliper LABCHIP 3000
Procedure: The assays were performed in U-bottom 384-well plates. The final assay volume was 30 μL prepared from 15 μL additions of enzyme and substrates (fluoresceinated peptide and ATP) and test compounds in assay buffer (20 mM HEPES pH 7.2, 10 mM MgCl2, 0.015% Brij 35 and 4 mM DTT). The reaction was initiated by the combination of IRAK4 with substrates and test compounds. The reaction mixture was incubated at room temperature for 60 min. and terminated by adding 45 μL of 35 mM EDTA to each sample. The reaction mixture was analyzed on the Caliper LABCHIP® 3000 (Caliper, Hopkinton, MA) by electrophoretic separation of the fluorescent substrate and phosphorylated product. Inhibition data were calculated by comparison to no enzyme control reactions for 100% inhibition and vehicle-only reactions for 0% inhibition. The final concentrations of reagents in the assays are ATP, 500 μM; FL-IPTSPITTTYFFFKKK peptide 1.5 μM; IRAK4, 0.6 nM; and DMSO, 1.6%.

IRAK4, sequence (Q9NWZ3 whole entry, species assumed): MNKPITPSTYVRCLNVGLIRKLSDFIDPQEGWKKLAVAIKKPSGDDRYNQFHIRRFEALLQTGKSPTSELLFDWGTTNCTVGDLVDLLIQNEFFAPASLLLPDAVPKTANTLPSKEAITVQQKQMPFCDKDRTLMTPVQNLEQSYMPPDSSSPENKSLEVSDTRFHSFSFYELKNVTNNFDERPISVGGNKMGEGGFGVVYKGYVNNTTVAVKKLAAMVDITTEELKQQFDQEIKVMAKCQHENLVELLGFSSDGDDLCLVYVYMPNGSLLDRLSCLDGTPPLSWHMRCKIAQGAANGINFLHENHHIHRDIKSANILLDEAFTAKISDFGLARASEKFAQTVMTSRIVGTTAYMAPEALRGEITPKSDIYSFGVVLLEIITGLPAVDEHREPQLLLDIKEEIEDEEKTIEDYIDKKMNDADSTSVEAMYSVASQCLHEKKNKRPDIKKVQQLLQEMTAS

Row | Compound | IC50 [nM]
1 | CC(C)Nc1c(C(=O)NC[C@@H](F)C(C)(C)O)cnc2ccc(-c3ccncc3)cc12 [Example 2, (R)—N-(2-fluoro-3-hydroxy-3-methylbutyl)-4-(isopropylamino)-6-(pyridin-4-yl)quinoline-3-carboxamide] | 25.9
2 | CC(C)Nc1c(C(=O)NC[C@@H](F)C(C)(C)O)cnc2ccc(-c3cccnc3)cc12 [Example 3, (R)—N-(2-fluoro-3-hydroxy-3-methylbutyl)-4-(isopropylamino)-6-(pyridin-3-yl) quinoline-3-carboxamide] | 46.2
3 | CC(C)Nc1c(C(=O)NC[C@@H](F)C(C)(C)O)cnc2ccc(-c3cncc(C#N)c3)cc12 [Example 4, (R)-6-(5-cyanopyridin-3-yl)-N-(2-fluoro-3-hydroxy-3-methylbutyl)-4-(isopropylamino)quinoline-3-carboxamide] | 296
4 | CC(C)Nc1c(C(=O)NC[C@@H](F)C(C)(C)O)cnc2ccc(-c3cncnc3)cc12 [Example 5, (R)—N-(2-fluoro-3-hydroxy-3-methylbutyl)-4-(isopropylamino)-6-(pyrimidin-5-yl)quinoline-3-carboxamide] | 31.7
5 | CC(C)Nc1c(C(=O)NC[C@@H](F)C(C)(C)O)cnc2ccc(-c3cccc(C#N)c3)cc12 [Example 6, (R)-6-(3-cyanophenyl)-N-(2-fluoro-3-hydroxy-3-methylbutyl)-4-(isopropylamino) quinoline-3-carboxamide] | 145
6 | CC(C)Nc1c(C(=O)NC2CCCOC2)cnc2ccc(-c3cn[nH]c3)cc12 (stereo not shown) [Example 8, 4-(isopropylamino)-6-(1H-pyrazol-4-yl)-N-(tetrahydro-2H-pyran-3-yl)quinoline-3-carboxamide] | 24.1
7 | CC(C)Nc1c(C(=O)NC2CCOCC2)cnc2ccc(-c3cn[nH]c3)cc12 [Example 9, 4-(isopropylamino)-6-(1H-pyrazol-4-yl)-N-(tetrahydro-2H-pyran-4-yl)quinoline-3-carboxamide] | 23.3
8 | CC(C)Nc1c(C(=O)NC(CCO)C2CC2)cnc2ccc(-c3cn[nH]c3)cc12 (stereo not shown) [Example 12, N-(1-cyclopropyl-3-hydroxypropyl)-4-(isopropylamino)-6-(1H-pyrazol-4-yl)quinoline-3-carboxamide] | 295
9 | CC(C)Nc1c(C(=O)N[C@H](C)CCO)cnc2ccc(-c3cn[nH]c3)cc12 [Example 13, (R)—N-(4-hydroxybutan-2-yl)-4-(isopropylamino)-6-(1H-pyrazol-4-yl)quinoline-3-carboxamide] | 88.3
10 | Cc1cc(CNC(=O)c2cnc3ccc(-c4cn[nH]c4)cc3c2NC(C)C)on1 [Example 16, 4-(isopropylamino)-N-((3-methylisoxazol-5-yl)methyl)-6-(1H-pyrazol-4-yl)quinoline-3-carboxamide] | 40.2
11 | COCCNC(=O)c1cnc2ccc(-c3cn[nH]c3)cc2c1NC(C)C [Example 18, 4-(isopropylamino)-N-(2-methoxyethyl)-6-(1H-pyrazol-4-yl)quinoline-3-carboxamide] | 28
12 | CC(C)Nc1c(C(=O)NCC(C)(C)CO)cnc2ccc(-c3cn[nH]c3)cc12 [Example 19, N-(3-hydroxy-2,2-dimethylpropyl)-4-(isopropylamino)-6-(1H-pyrazol-4-yl)quinoline-3-carboxamide] | 94.8
13 | CC(C)Nc1c(C(=O)NCC2(CO)COC2)cnc2ccc(-c3cn[nH]c3)cc12 [Example 20, N-((3-(hydroxymethyl)oxetan-3-yl)methyl)-4-(isopropylamino)-6-(1H-pyrazol-4-yl)quinoline-3-carboxamide] | 48.9
14 | CC(C)Nc1c(C(=O)NCC2(CO)CC2)cnc2ccc(-c3cn[nH]c3)cc12 [Example 21, N-((1-(hydroxymethyl)cyclopropyl)methyl)-4-(isopropylamino)-6-(1H-pyrazol-4-yl)quinoline-3-carboxamide] | 114
15 | CCNc1c(C(=O)NC[C@@H](F)C(C)(C)O)cnc2ccc(-c3cncs3)cc12 [Example 28, (R)-4-(ethylamino)-N-(2-fluoro-3-hydroxy-3-methylbutyl)-6-(thiazol-5-yl)quinoline-3-carboxamide] | 81.2
16 | CC(C)Nc1c(C(N)=O)cnc2ccc(-c3cn[nH]c3)cc12 [Example 29, 4-(isopropylamino)-6-(1H-pyrazol-4-yl)quinoline-3-carboxamide] | 21.7
17 | CC(O)CNc1c(C(=O)NC[C@@H](F)C(C)(C)O)cnc2ccc(-c3cn[nH]c3)cc12 (stereo partly drawn) [Example 30, N—((R)-2-fluoro-3-hydroxy-3-methylbutyl)-4-((2-hydroxypropyl)amino)-6-(1H-pyrazol-4-yl)quinoline-3-carboxamide] | 24.2
18 | CC(C)(O)[C@H](F)CNC(=O)c1cnc2ccc(-c3cncs3)cc2c1Nc1cnn(CC(F)F)c1 [Example 31, (R)-4-((1-(2,2-difluoroethyl)-1H-pyrazol-4-yl)amino)-N-(2-fluoro-3-hydroxy-3-methylbutyl)-6-(thiazol-5-yl)quinoline-3-carboxamide] | 430
19 | CC(O)CNc1c(C(=O)NC[C@@H](F)C(C)(C)O)cnc2ccc(-c3cncs3)cc12 (stereo partly drawn) [Example 32, N—((R)-2-fluoro-3-hydroxy-3-methylbutyl)-4-((2-hydroxypropyl)amino)-6-(thiazol-5-yl)quinoline-3-carboxamide] | 116
20 | CC(C)(O)[C@H](F)CNC(=O)c1cnc2ccc(-c3cn[nH]c3)cc2c1Nc1cnn(CC(F)F)c1 [Example 33, (R)-4-((1-(2,2-difluoroethyl)-1H-pyrazol-4-yl)amino)-N-(2-fluoro-3-hydroxy-3-methylbutyl)-6-(1H-pyrazol-4-yl)quinoline-3-carboxamide] | 157
21 | CC(C)(O)[C@H](F)CNC(=O)c1cnc2ccc(-c3cncs3)cc2c1NC1COC1 [Example 35, (R)—N-(2-fluoro-3-hydroxy-3-methylbutyl)-4-(oxetan-3-ylamino)-6-(thiazol-5-yl) quinoline-3-carboxamide] | 78
22 | CCNc1c(C(=O)NCCC(C)(C)O)cnc2ccc(-c3cncs3)cc12 [Example 37, 4-(ethylamino)-N-(3-hydroxy-3-methylbutyl)-6-(thiazol-5-yl)quinoline-3-carboxamide] | 110
23 | CCNc1c(C(=O)NCCC(C)(C)O)cnc2ccc(-c3cn[nH]c3)cc12 [Example 38, 4-(ethylamino)-N-(3-hydroxy-3-methylbutyl)-6-(1H-pyrazol-4-yl)quinoline-3-carboxamide] | 49.2

Other lines, results leading:

Row | IC50 [nM] | Compound
24 | 38.6 | CC(C)Nc1c(C(=O)N[C@H]2C[C@@H](O)C2)cnc2ccc(-c3cn[nH]c3)cc12 [Example 39, N-((1s,3s)-3-hydroxycyclobutyl)-4-(isopropylamino)-6-(1H-pyrazol-4-yl)quinoline-3-carboxamide]
25 | 33.5 | CC(C)(O)CCNC(=O)c1cnc2ccc(-c3cn[nH]c3)cc2c1NC1COC1 [Example 40, N-(3-hydroxy-3-methylbutyl)-4-(oxetan-3-ylamino)-6-(1H-pyrazol-4-yl)quinoline-3-carboxamide]
26 | 210 | CC(C)(O)CCNC(=O)c1cnc2ccc(-c3cncs3)cc2c1NC1COC1 [Example 41, N-(3-hydroxy-3-methylbutyl)-4-(oxetan-3-ylamino)-6-(thiazol-5-yl)quinoline-3-carboxamide]
27 | 30.7 | CNC(=O)CCNC(=O)c1cnc2ccc(-c3cn[nH]c3)cc2c1NC(C)C [Example 48, 4-(isopropylamino)-N-(3-(methylamino)-3-oxopropyl)-6-(1H-pyrazol-4-yl)quinoline-3-carboxamide]
28 | 29.8 | CC(C)Nc1c(C(=O)NCCC(=O)N(C)C)cnc2ccc(-c3cn[nH]c3)cc12 [Example 49, N-(3-(dimethylamino)-3-oxopropyl)-4-(isopropylamino)-6-(1H-pyrazol-4-yl)quinoline-3-carboxamide]
29 | 32.7 | CC(C)Nc1c(C(=O)NCCC(=O)N2CCCC2)cnc2ccc(-c3cn[nH]c3)cc12 [Example 50, 4-(isopropylamino)-N-(3-oxo-3-(pyrrolidin-1-yl)propyl)-6-(1H-pyrazol-4-yl)quinoline-3-carboxamide]
30 | 23.9 | CC(C)(O)CCNC(=O)c1cnc2ccc(-c3cn[nH]c3)cc2c1NC1CC(F)(F)C1 [Example 52, 4-((3,3-difluorocyclobutyl)amino)-N-(3-hydroxy-3-methylbutyl)-6-(1H-pyrazol-4-yl)quinoline-3-carboxamide]
31 | 32.6 | CC(O)CCNC(=O)c1cnc2ccc(-c3cn[nH]c3)cc2c1NC1CC(F)(F)C1 (stereo not shown) [Example 53, 4-((3,3-difluorocyclobutyl)amino)-N-(3-hydroxybutyl)-6-(1H-pyrazol-4-yl)quinoline-3-carboxamide]
32 | 53.1 | O=C(NCCC(F)(F)F)c1cnc2ccc(-c3cn[nH]c3)cc2c1NC1CC(F)(F)C1 [Example 55, 4-((3,3-difluorocyclobutyl)amino)-6-(1H-pyrazol-4-yl)-N-(3,3,3-trifluoropropyl)quinoline-3-carboxamide]
33 | 19.7 | O=C(NCCC1CC1)c1cnc2ccc(-c3cn[nH]c3)cc2c1NC1CC(F)(F)C1 [Example 56, N-(2-cyclopropylethyl)-4-((3,3-difluorocyclobutyl)amino)-6-(1H-pyrazol-4-yl)quinoline-3-carboxamide]
34 | 22.6 | CC(=O)NC1CC(NC(=O)c2cnc3ccc(-c4cn[nH]c4)cc3c2NC2CC(F)(F)C2)C1 (stereo not shown) [Example 57, N-((1r,3r)-3-acetamidocyclobutyl)-4-((3,3-difluorocyclobutyl)amino)-6-(1H-pyrazol-4-yl)quinoline-3-carboxamide]
